We go through 22 molecules from US6987092B1, “Indigoid bisindole derivatives” (Faustus Forschungs Cie. Translational Cancer Research GmbH, priority 1999, dated 2006).

Common to all, as to format: cell-based
In one series the test system is LXFL-529L cells. Put plainly: Cellular uptake by LXFL-529L cells. The conditions noted are these: 2 hours; for distribution particular: cellular organelles. How it is done:
The amounts of the substances which were taken up by the cells are given depending on the concentration of the substance within the incubation medium. The time of incubation was 2 hours in all of the experiments. Furthermore, distribution between cytosol and the cellular organelles (particular) was measured and is given in the last two columns of Table 3.

In series [1] the test system is cells of the large-cell lung carcinoma of the tumor line LXFL-529L. The experiment in a line: Tumor cell growth inhibition, SRB-assay, LXFL-529L. The conditions noted are these: 50% growth inhibition, three days incubation in serum-containing medium. Background: In SRB staining, fixed cells bind dye roughly in proportion to their protein.
In series [2] the test system is cells of the mammary carcinoma cell line MCF-7. Put plainly: Tumor cell growth inhibition, SRB-assay, MCF-7. The conditions noted are these: 50% growth inhibition, three days incubation in serum-containing medium.
The mark [3] stands for this setting: concentration of incubation 10 μM.
Setting [4] is: concentration of incubation 20 μM.
Where [5] appears, read: concentration of incubation 50 μM.

With “3-{3′-[iminooxy-O-(2-D-glucopyranosylethyl)]-(2′H3′H)indol-2′-ylidene}-(2H3H)indol-2-one [Example 48]”, in the series on LXFL-529L cells (setting [3]), the distribution particular is given as 87 ± 7%, the amount taken up is given as 0.20 ± 0.05 μg/mg protein and the distribution cytosol is recorded as 13 ± 3%. In the series with LXFL-529L cells (setting [4]), this molecule yielded a distribution particular of 95 ± 6%, an amount taken up of 0.25 ± 0.04 μg/mg protein and a distribution cytosol of 5 ± 1%. In addition, the IC50 in series [1] is 21 ± 1.5 µM. The same molecule registered an IC50 in series [2] of 3.5 ± 0.6 µM.
Consider `CCc1ccc2c(c1)/C(=C1/Nc3ccccc3C1=O)C(=O)N2` [Example 2, 5-ethyl-indirubin], for which, in the series on LXFL-529L cells (setting [3]), the distribution particular was found to be 90 ± 6%, the amount taken up is reported as 0.20 ± 0.05 μg/mg protein and the distribution cytosol came to 10 ± 2%. For the same molecule, in the series on LXFL-529L cells (setting [4]), the distribution particular came to 95 ± 3%, the amount taken up turned out to be 0.22 ± 0.07 μg/mg protein and the distribution cytosol was determined as 5 ± 2%. The same molecule showed an IC50 in series [1] of 7 ± 0.2 µM. This molecule came in with an IC50 in series [2] of 7 ± 0.2 µM.
As for `Nc1ccc2c(c1)C(=C1Nc3ccccc3C1=O)C(=O)N2` [Example 15, 5-amino-indirubin], the distribution particular in the series with LXFL-529L cells (setting [3]) is listed as 85 ± 4%; in the series on LXFL-529L cells (setting [4]) it was 94 ± 4%. For the same molecule, the amount taken up in the series on LXFL-529L cells (setting [3]) came out at 0.25 ± 0.04 μg/mg protein; with LXFL-529L cells (setting [4]) it was 0.29 ± 0.05 μg/mg protein. The figures for the distribution cytosol in the series with LXFL-529L cells (setting [3]) and with LXFL-529L cells (setting [4]) were 15 ± 2% and 6 ± 1%, respectively. The IC50 worked out at 8 ± 0.7 µM in series [1] and 5 ± 0.5 µM in series [2].
Turning to `Cc1ccc2c(c1)C(=C1Nc3ccccc3C1=NO)C(=O)N2` [Example 25, 5-methyl-indirubin-3′-monooxime], the distribution particular came out at 80 ± 5% in the series on LXFL-529L cells (setting [3]), 84 ± 4% in the series on LXFL-529L cells (setting [4]) and 90 ± 8% with LXFL-529L cells (setting [5]). Besides, the results for the amount taken up in the series with LXFL-529L cells (setting [3]), in the series with LXFL-529L cells (setting [4]) and in the series with LXFL-529L cells (setting [5]) were 0.12 ± 0.03 μg/mg protein, 0.15 ± 0.04 μg/mg protein and 0.18 ± 0.06 μg/mg protein, respectively. The distribution cytosol with LXFL-529L cells (setting [3]) amounted to 20 ± 4%; with LXFL-529L cells (setting [4]) it was 16 ± 3%; with LXFL-529L cells (setting [5]), 10 ± 4%. Further, the IC50 was 6 ± 0.8 µM in series [1] and 6 ± 0.9 µM in series [2].
In the series on LXFL-529L cells (setting [3]), `CCc1ccc2c(c1)C(=C1Nc3ccccc3C1=NO)C(=O)N2` [Example 26, 5-ethyl-indirubin-3′-monooxime] yielded a distribution particular of 82 ± 6%, an amount taken up of 0.10 ± 0.03 μg/mg protein and a distribution cytosol of 18 ± 3%. In addition, in the series on LXFL-529L cells (setting [4]), the distribution particular turned out to be 89 ± 5%, the amount taken up amounted to 0.13 ± 0.05 μg/mg protein and the distribution cytosol is 11 ± 3%. Moreover, it took 6 ± 0.6 µM to reach half-maximal inhibition in series [1] (IC50). In addition, the IC50 in series [2] was 7 ± 0.9 µM.
In the series with LXFL-529L cells (setting [3]), `Nc1ccc2c(c1)C(=C1Nc3ccccc3C1=NO)C(=O)N2` [Example 28, 5-amino-indirubin-3′-monooxime] returned a distribution particular of 90 ± 6%, an amount taken up of 0.20 ± 0.06 μg/mg protein and a distribution cytosol of 10 ± 2%. In the series on LXFL-529L cells (setting [4]), the distribution particular was 94 ± 5%, the amount taken up was found to be 0.23 ± 0.05 μg/mg protein and the distribution cytosol is recorded as 90 ± 6%. In series [1], this molecule displayed an IC50 of 7.5 ± 0.4 µM. For the same molecule, inhibition in series [2] was half-maximal at 5 ± 0.8 µM (IC50).
In the series on LXFL-529L cells (setting [3]), `O=C1Nc2ccccc2C1=C1Nc2ccccc2C1=NOCCO` [Example 31] gave a distribution particular of 93 ± 7%, an amount taken up of 0.27 ± 0.06 μg/mg protein and a distribution cytosol of 7 ± 1%. In the series with LXFL-529L cells (setting [4]), this molecule returned a distribution particular of 93 ± 6%, an amount taken up of 0.31 ± 0.07 μg/mg protein and a distribution cytosol of 7 ± 2%. The molecule further had an IC50 in series [1] of 1.5 ± 0.4 µM. This molecule gave an IC50 in series [2] of 2.5 ± 0.4 µM.
`CCOC(=O)ON=C1C(=C2C(=O)Nc3ccccc32)Nc2ccccc21` [Example 39, 3-[3′-(iminooxy-O-carbethoxy)-(2′H3′H)indol-2′-ylidene]-(2H3H)indol-2-one]: the IC50 in series [1] turned out to be 4.5 ± 0.7 µM; in series [2], 10 ± 0.9 µM.
As to `CCOC(=O)CON=C1C(=C2C(=O)Nc3ccccc32)Nc2ccccc21` [Example 40, ethyl-2{O-[2′-(2-oxo-(2H3H)indol-3-ylidene)-(2′H3′H)indol-3′-ylidene]-aminooxy}-acetate], the 50% inhibitory concentration (IC50) in series [1] amounted to 6 ± 0.4 µM; in series [2], 10 ± 0.7 µM.
The matching figures for `CN(C)C(=O)ON=C1C(=C2C(=O)Nc3ccccc32)Nc2ccccc21` [Example 41, 3-{3′-[iminooxy-O-((N,N)-dimethyl-carbamoyl)]-(2′H3′H)indol-2′-ylidene}-(2H3H)indol-2-one]: 5 ± 0.6 µM and 7.5 ± 0.9 µM.
As for `NC(=O)CON=C1C(=C2C(=O)Nc3ccccc32)Nc2ccccc21` [Example 42, 2-{O-[2′-(2-oxo-(2H3H)indol-3-ylidene)-(2′H3′H)indol-3′-ylidene]-aminooxy}-acetamide], the IC50 in series [1] was found to be 2 ± 0.3 µM; in series [2], 6 ± 0.5 µM.
As to `CN(C)C(=O)CON=C1C(=C2C(=O)Nc3ccccc32)Nc2ccccc21` [Example 43, N,N-dimethyl-2{O-[2′-(2-oxo-(2H3H)indol-3-ylidene)-(2′H3′H)indol-3′-ylidene]-aminooxy}-acetamide], the IC50 in series [1] came to 7 ± 1.1 µM; in series [2], 9.2 ± 0.9 µM.
The corresponding values for `O=C1Nc2ccccc2C1=C1Nc2ccccc2C1=NOCCNC[C@H](O)[C@@H](O)[C@H](O)[C@H](O)CO` [Example 55, 3-{3′-[iminooxy-O-(N-(1-deoxy-glucitol)-2-amino-ethyl)]-(2′H3′H)indol-2′-ylidene}-(2H3H)indol-2-one] are 3 ± 0.6 µM and 3 ± 0.8 µM.
Turning to `O=C1Nc2ccccc2C1=C1Nc2ccccc2C1=NOCCN[C@H]1C(O)O[C@H](CO)[C@@H](O)[C@@H]1O` (some centres unmarked) [Example 56, 3-{3′-[iminooxy-O-(N-(2-deoxy-glucose)-2-amino-ethyl)]-(2′H3′H)indol-2′-ylidene}-(2H3H)indol-2-one], the IC50 stood at 12 ± 1.3 µM in series [1] and 14 ± 1.2 µM in series [2].
Consider `CN(C)CCON=C1C(=C2C(=O)Nc3ccccc32)Nc2ccccc21` [Example 58, 3-{3′-[iminooxy-O-((N,N)-dimethyl-2-amino-ethyl)]-(2′H3′H)indol-2′-ylidene}-(2H3H)indol-2-one], for which the IC50 in series [1] was 5 ± 0.9 µM; in series [2], 6.5 ± 1.1 µM.
The corresponding values for `O=C1Nc2ccccc2C1=C1Nc2ccccc2C1=NOCCNCCO` [Example 59, 3-{3′-[iminooxy-O-(N-hydroxyethyl-2-amino-ethyl)]-(2′H3′H)indol-2′-ylidene}-(2H3H)indol-2-one] are 11.6 ± 0.8 µM and 13.6 ± 1.2 µM.
For `O=C1Nc2ccccc2C1=C1Nc2ccccc2C1=NOCCN(CCO)CCO` [Example 60, 3-{3′-[iminooxy-O-((N,N)-bis(hydroxyethyl)-2-amino-ethyl)]-(2′H3′H)indol-2′-ylidene}-(2H3H)indol-2-one], the IC50 was found to be 3 ± 0.4 µM in series [1] and 4.5 ± 0.5 µM in series [2].
The corresponding values for `O=C1Nc2ccccc2C1=C1Nc2ccccc2C1=NOCCCCCCCCCCN(CCO)CCO` [Example 62] are 14 ± 1 µM and 13.5 ± 1.3 µM.
The corresponding values for `O=C1Nc2ccccc2C1=C1Nc2ccccc2C1=NOCCN1CCNCC1` [Example 63, 3-{3′-[iminooxy-O-(2-(piperazin-1-yl)-ethyl)]-(2′H3′H)indol-2′-ylidene}-(2H3H)indol-2-one] are 8 ± 0.6 µM and 9.5 ± 0.8 µM.
Consider `O=C1Nc2ccccc2C1=C1Nc2ccccc2C1=NOCCN1CCOCC1` [Example 64, 3-{3′-[iminooxy-O-(2-(morpholin-4-yl)-ethyl)]-(2′H3′)indol-2′-ylidene}-(2H3H)indol-2-one], for which the IC50 in series [1] is 10 ± 0.6 µM; in series [2] it was 9 ± 1.2 µM.
The matching figures for `Cc1ccc2c(c1)C(=C1Nc3ccccc3C1=NOCCO)C(=O)N2` [Example 67, 3-[3′-[iminooxy-O-(2-hydroxy-ethyl)]-(2H′3H′)indol-2′-ylidene]-5-methyl-(2H3H)indol-2-one]: 1 ± 0.5 µM and 1.5 ± 0.6 µM.
As to “indirubin-5-sulfonic acid-(morpholin-4-yl-amide) [Example 23]”, the IC50 in series [1] worked out at 4.5 ± 0.8 µM; in series [2], 3 ± 0.9 µM.

Broadly, the IC50 is the concentration at which inhibition is half-maximal. Read a high IC50 as weaker potency in that assay.
